Legend:
Assay type in all cases: in vivo, human
[1] = test system: patients with symptomatic oHCM; assay: Open-label extension trial in oHCM: LVOT-G, LVEF, NYHA class, KCCQ
Excerpt: An open-label extension clinical trial of CK-274 in patients with symptomatic oHCM was initiated.
Patients who completed the study as described in Example 2 and had not developed atrial fibrillation were eligible to enroll in the study. Echo-guided dose titration based on site reads was managed by the investigator and could occur at any time during the trial, as described below.
Each patient received Dose 1 of CK-274 once daily for 2 weeks. […] Patients were up-titrated to Dose 2 if either of the following conditions were met on echocardiography: (1) resting LVOT-G≥30 mmHg and the biplane LVEF≥50%; or (2) resting LVOT-G<30 mmHg, post-Valsalva LVOT-G≥50 mmHg, and the biplane LVEF≥50%. Otherwise, the patient remained on 5 mg of CK-274. If LVEF was […], treatment was discontinued. If LVEF was <40%, treatment is interrupted.
Ambulatory cardiac monitoring is performed on weeks 48, 96, 144, 192 and 240. Cardiac magnetic resonance is monitored at weeks 48, 144 and 240. (See FIG. 26).
Change in KCCQ scores from baseline, including OSS=overall summary score, CSS=clinical summary score, TSS=total symptom score, PLS=physical limitation score, SLS=social limitation score, QoL=quality of life, were determined. Patients were categorized with worsened (≤−5 points), unchanged (−5 to <5 points), small improvement (5 to <10 points), moderate to large improvement (10 to <20 points), and large to very large improvement (≥20 points) relative to baseline.

[2] = Phase 1 plasma pharmacokinetics, single-ascending dose cohorts
Description: Single-ascending dose (SAD) cohorts. The SAD portion of the study used a randomized, double-blind, placebo-controlled, sequential, escalating-dose design, in which participants received single-ascending oral doses of the study drug. Seven cohorts were dosed in sequence (FIG. 2).
Pharmacokinetic analyses. For all study groups, blood samples for PK assessment were obtained pre-dose, up to 12 times daily on day 1, and then at regular intervals throughout the study. Blood samples were collected according to the following schedule: SAD Cohorts: Day 1: pre-dose and 0.25, 0.5, 1, 1.5, 2, 2.5, 3, 4, 6, 8, 12, 16, 24, 36, 48, 72, 96, and 216 h post dose. MAD Cohorts (14-day Dosing): Day 1: pre-dose and 0.25, 0.5, 1, 1.5, 2, 2.5, 3, 4, 6, 8, and 12 h post dose; Days 2, 4, 5, 6, and 9: pre-dose (corresponding to trough samples following dosing on days 1, 3, 4, 5, and 8) and 1.5 h post dose; Days 3, 7, 8, 10, 11, 12, and 13: pre-dose (corresponding to trough samples following dosing on days 2, 6, 7, 9, 10, 11, and 12); Day 14: pre-dose and 0.25, 0.5, 1.5, 2, 2.5, 3, 4, 6, 8, 12, 16, 24, 36, 48, 72, and 168 h post dose. MAD Cohort (17-Day Dosing): Day 1: pre-dose and 0.25, 0.5, 1, 1.5, 2, 2.5, 3, 4, 6, 8, and 12 h post dose; Days 2, 4, 5, 6, and 9: pre-dose (corresponding to trough samples following dosing on days 1, 3, 4, 5, and 8) and 1.5 h post dose; Days 3, 7, 8, 10, 11, 12, 13, 14, 15, and 16: pre-dose (corresponding to trough samples following dosing on days 2, 6, 7, 9, 10, 11, and 12); Day 17: pre-dose and 0.25, 0.5, 1.5, 2, 2.5, 3, 5, 7, 9, 12, 24, 36, 48, 72, and 168 h post dose. CYPD6-PM Cohort: Day 1: pre-dose and 0.25, 0.5, 1, 1.5, 2, 2.5, 3, 4, 6, 8, 12, 16, 24, 36, 48, 72, 96, 216, 312, and 552 h post dose. Food-Effect Cohort: Day 1: pre-dose and 0.25, 0.5, 1, 1.5, 2, 2.5, 3, 4, 6, 8, 12, 16, 24, 36, 48, 72, 96, 144, and 216 h post dose. Standard non-compartmental methods were used to calculate PK parameters using Phoenix® WinNonlin® Version 7.0; actual sample collection times were utilized.
For the MAD cohort, the parameters were AUC24 and Cmax on day 1, plus AUC to the […] (AUCtau) and Cmax on day 14 or 17. The statistical linear relationship between the ln-transformed PK parameters and the ln-transformed dose was verified by including the quadratic (ln Dose)^2 and cubic (ln Dose)^3 effects. […] The dose-proportionality analysis was performed using SAS® PROC MIXED.

[3] = test system: patients with symptomatic obstructive HCM (oHCM) receiving disopyramide; assay: Phase 2 trial in oHCM, Cohort 3: CK-274 in combination with disopyramide
Excerpt: Cohort 3 included patients receiving disopyramide.
Body weight was ≥45 kg at screening; 4. […] Adequate acoustic windows for echocardiography; 6. Had LVOT-G during screening as follows for Cohorts 1 and 2: (a) resting gradient≥50 mmHg; or (b) resting gradient≥30 mmHg and <50 mmHg with post-Valsalva LVOT-G≥50 mmHg; or as follows for Cohort 3: persistent resting LVOT obstruction (≥30 mmHg) and provoked LVOT obstruction (≥50 mmHg); 7. Left ventricular ejection fraction (LVEF)≥60% at screening; 8. […] Taking stable doses of disopyramide for >4 weeks prior to screening (Cohort 3 only).
Patients up-titrated to Dose 2 if either of the following conditions were met on echocardiography: (1) resting LVOT-G≥30 mmHg and the biplane LVEF≥50%; or (2) resting LVOT-G<30 mmHg, post-Valsalva LVOT-G≥50 mmHg, and the biplane LVEF≥50%. Otherwise, the patient remains on Dose 1. If LVEF is <50% at Week 2, the patient was down-titrated to placebo.
Overall, treatment duration for each patient in the study was 10 weeks with an echocardiogram conducted 2 weeks after the last dose. Efficacy endpoints included resting and provoked LVOT gradients, NYHA class, and NT-proBNP.

CCc1nc(-c2ccc3c(c2)CC[C@H]3NC(=O)c2cnn(C)c2)no1 [aficamten, (R)—N-(5-(5-ethyl-1,2,4-oxadiazol-3-yl)-2,3-dihydro-1H-inden-1-yl)-1-methyl-1H-pyrazole-4-carboxamide]
Participants with very large clinical improvements (≥20 points) in KCCQ ([1]; Week 24): 40.0%
LVOT gradients (resting and Valsalva) over time ([1]; Weeks 2-24, site reads): significant and sustained reduction
Patients with worsening in NYHA class from baseline ([1]; open-label extension): No patients
LVEF over time ([1]; through Week 24): minimal and stable reductions
Maximum time to maximum observed concentration across all participants ([2]; SAD cohorts): 4.0 h
CL/F, mean ± SD ([2]; single oral dose 3 mg, n = 5): 4.2 ± 3.1 L/h
CL/F, mean ± SD ([2]; single oral dose 10 mg, n = 4): 3.0 ± 0.7 L/h
CL/F, mean ± SD ([2]; single oral dose 25 mg, n = 6): 3.6 ± 0.5 L/h
CL/F, mean ± SD ([2]; single oral dose 40 mg, n = 5): 3.4 ± 0.6 L/h
CL/F, mean ± SD ([2]; single oral dose 50 mg, n = 9): 3.8 ± 1.1 L/h
Moderate adverse events recorded ([3]; Cohort 3): six
New York Heart Association functional class ([3]; Cohort 3): improved in the majority of patients
Patients whose LVEF fell below the safety threshold of 50% ([3]; Cohort 3): no patients
Serious adverse events attributed to treatment ([3]; Cohort 3): no serious adverse events attributed to treatment
Average resting and post-Valsalva LVOT-G ([3]; Cohort 3, 5, 10, 15 mg, 10 weeks): substantial reductions
Patients with AEs related to study drug (per investigator) ([3]; Cohort 3, 13 patients): 2 (15.4) N (%)
Patients with TEAEs leading to drug interruption or termination ([3]; Cohort 3, 13 patients): 0 N (%)
Patients with TESAEs ([3]; Cohort 3, 13 patients): 0 N (%)
Patients with at least one TEAE ([3]; Cohort 3, 13 patients): 9 (69) N (%)
Patients with fatal TEAEs ([3]; Cohort 3, 13 patients): 0 N (%)
TEAE of LVEF <50% (Core Lab) ([3]; Cohort 3, 13 patients): 0 N (%)
Adverse events of asymptomatic atrial fibrillation ([3]; Cohort 3, patient with known prior history): One
Effect on LVOT-G compared with Cohort 1 patients (same CK-274 dose) ([3]; Cohort 3, patients treated with disopyramide): mostly attenuated
